Experimental findings from US9663458B2, “Diaminoguanidine derivatives and application thereof in preparation of animal growth promoters used in feed” (priority 2014, dated 2017) are described below.

Values joined by “and” are separate entries in the source; they are usually repeats but may differ in a detail not shown here. Equal values may be shown once. Read-outs that look alike come from different tables or passages of the source.

Series [1] deals with yellow feather broilers (female). As to the kind of experiment: Feeding trial (broilers). Format: in vivo. The following applies: 20 ppm in feed, 30 days; for Feed conversion efficiency: controls 2.15, 2.11, hydrochloride; for Average daily weight gain: controls 23.7, hydrochloride; for Average weight gain: controls 713, 712, hydrochloride; for Consumption: group of 50, controls 76.6, 75.2, hydrochloride. An excerpt:
400 1-day-aged, healthy, fast-grown yellow feather broilers (female) in the same growing state and similar in weight were randomly divided into eight groups according to table 5, 50 broilers in each group. Broilers in each group were fed with different dosage of the IST_007 series compounds.

The test system of another series is cherry valley ducks. Put plainly: Feeding trial (ducks). Format: in vivo. As to conditions: 20 ppm in basal diet, 30 days; for Average feed conversion efficiency: control 2.16; for Average weight gain: control 55.8. The source says: 800 1-day-old cherry valley ducks were divided into 8 groups, 100 ducks in each group. […] The compounds of IST_007 series can substantially enhance the productivity of the ducks, concluded from the results.

The test system of the next series is Clostridium perfringens. As to the kind of experiment: microbe, parasite or virus in culture. Format: cell-based.
Series [2] concerns Duroc-YorkShire-Landrace crossbred lean pigs. Put plainly: Feeding trial (pigs). As to conditions: 25 mg/kg mixed with feed, 14 days; for Average daily weight gain: controls 0.44, 0.43, hydrochloride; for Feed conversion efficiency: controls 2.13, 2.11, hydrochloride; for Average weight gain: controls 6.2, 6.1, hydrochloride; for Consumption: group of 15, controls 198.3, 192.9, hydrochloride.

The mark [3] stands for this setting: read-out: Minimum inhibitory concentration (MIC), strain RA-FS-1308-1, in vitro.
[4] abbreviates: read-out: Minimum inhibitory concentration (MIC), strain RA-GD-1211-D, in vitro.
The mark [5] stands for this setting: read-out: Minimum inhibitory concentration (MIC), strain RA-HN-1211-C, in vitro.
[6] abbreviates: read-out: Minimum inhibitory concentration (MIC), strain CP-JM-1208-H, in vitro.
[7] abbreviates: read-out: Minimum inhibitory concentration (MIC), strain CP-JM-1210-B, in vitro.
Setting [8] is: read-out: Minimum inhibitory concentration (MIC), strain CP-JM-1210-E, in vitro.

For the compound `COc1ccc(/C=N/NC(=N)N/N=C/c2ccc(OC)cc2)cc1.Cl` [IST_007_001, 1,3-bis[(4-methoxybenzylidene)amino]guanidine hydrochloride], the MIC with Riemerella anatipestifer (setting [3]) is 6.25 µg/mL; in the series on Riemerella anatipestifer (setting [4]), 3.13 µg/mL; in the series on Riemerella anatipestifer (setting [5]), 3.13 µg/mL; in the series on Clostridium perfringens (setting [6]) it was 12.5 µg/mL; in the series with Clostridium perfringens (setting [7]) it was 1.56 µg/mL; with Clostridium perfringens (setting [8]), 50 µg/mL. The “Survival rate (%)” value (in series [1]; in the series on cherry valley ducks) was 100% throughout. Besides, the Feed conversion efficiency in series [1] is 1.88 and 1.91. For the same compound, in series [1], the “Average daily weight gain” value was 25.5 g and 25.8 g. Also, the “Average weight gain” value in series [1] is 764 g and 775 g; with cherry valley ducks, 62.1. Also, in series [1], the “Consumption” value was 71.7 kg and 73.8 kg. Besides, the “Average feed conversion efficiency” value in the series with cherry valley ducks was 2.01.

With `CCOc1ccc(C=NNC(=N)NN=Cc2ccc(OCC)cc2)cc1.Cl` [IST_007_002, 1,3-bis[(4-ethoxybenzylidene)amino]guanidine hydrochloride], the MIC in the series on Riemerella anatipestifer (setting [3]) is greater than 100 µg/mL; with Riemerella anatipestifer (setting [4]), greater than 100 µg/mL; in the series on Riemerella anatipestifer (setting [5]), greater than 100 µg/mL; in the series on Clostridium perfringens (setting [6]), greater than 100 µg/mL; in the series on Clostridium perfringens (setting [7]), 0.2 µg/mL; with Clostridium perfringens (setting [8]), greater than 100 µg/mL.

For `CC(C)Oc1ccc(C=NNC(=N)NN=Cc2ccc(OC(C)C)cc2)cc1.Cl` [IST_007_003, 1,3-bis[(4-isopropoxybenzylidene)amino]guanidine hydrochloride], the “Average daily weight gain” value in series [2] was 0.56 kg/day and 0.58 kg/day; in series [1], 26.3 g and 26.5 g. In addition, the Feed conversion efficiency was 1.84 and 1.65 in series [2]; 1.86 and 1.82 in series [1]. For the same compound, the “Average weight gain” value in series [2] was 7.8 kg and 8.2 kg; in series [1], 791 g and 795 g; in the series on cherry valley ducks, 63.6. For the same compound, the “Consumption” value was 215.3 kg and 203.4 kg in series [2]; 73.7 kg and 72.3 kg in series [1]. Also, the MIC in the series with Riemerella anatipestifer (setting [3]) was 1.56 µg/mL; in the series with Riemerella anatipestifer (setting [4]), 1.56 µg/mL; with Riemerella anatipestifer (setting [5]), 1.56 µg/mL; in the series on Clostridium perfringens (setting [6]), 12.5 µg/mL; in the series with Clostridium perfringens (setting [7]), 3.13 µg/mL; with Clostridium perfringens (setting [8]), 12.5 µg/mL. Moreover, the “Survival rate (%)” value (in series [1]; in the series on cherry valley ducks) was 100% throughout. The “Average feed conversion efficiency” value in the series on cherry valley ducks came to 2.03.

For the compound `CCCCOc1ccc(C=NNC(=N)NN=Cc2ccc(OCCCC)cc2)cc1.Cl` [IST_007_005, 1,3-bis[(4-butoxybenzylidene)amino]guanidine hydrochloride], the MIC in the series with Riemerella anatipestifer (setting [3]) stood at 1.56 µg/mL; with Riemerella anatipestifer (setting [4]) it was 1.56 µg/mL; with Riemerella anatipestifer (setting [5]) it was 1.56 µg/mL; in the series on Clostridium perfringens (setting [6]) it was 12.5 µg/mL; with Clostridium perfringens (setting [7]) it was 0.78 µg/mL; with Clostridium perfringens (setting [8]) it was 25 µg/mL. Moreover, the “Survival rate (%)” value (in series [1]; in the series on cherry valley ducks) was 100% throughout. Further, the Feed conversion efficiency in series [1] is 1.86 and 1.84. Besides, the “Average daily weight gain” value in series [1] was 26.5 g and 26.2 g. The “Average weight gain” value in series [1] is 796 g and 787 g; in the series with cherry valley ducks, 62.4. For the same compound, the “Consumption” value in series [1] was 74.1 kg and 72.5 kg. In addition, the “Average feed conversion efficiency” value in the series with cherry valley ducks amounted to 2.07.

`CCCCCOc1ccc(C=NNC(=N)NN=Cc2ccc(OCCCCC)cc2)cc1.Cl` [IST_007_019, 1,3-bis[(4-pentoxybenzylidene)amino]guanidine hydrochloride]: the MIC in the series with Riemerella anatipestifer (setting [3]) was greater than 200 µg/mL; in the series on Riemerella anatipestifer (setting [4]) it was 0.39 µg/mL; with Riemerella anatipestifer (setting [5]), greater than 200 µg/mL; with Clostridium perfringens (setting [6]) it was greater than 200 µg/mL; in the series on Clostridium perfringens (setting [7]), greater than 200 µg/mL; with Clostridium perfringens (setting [8]), greater than 200 µg/mL.

As for `CCCCCCCCOc1ccc(C=NNC(=N)NN=Cc2ccc(OCCCCCCCC)cc2)cc1.Cl` [IST_007_020, 1,3-bis[(4-octoxybenzylidene)amino]guanidine hydrochloride], the MIC in the series on Riemerella anatipestifer (setting [3]), in the series with Riemerella anatipestifer (setting [4]), with Riemerella anatipestifer (setting [5]), in the series on Clostridium perfringens (setting [6]), in the series with Clostridium perfringens (setting [7]) and in the series on Clostridium perfringens (setting [8]) was greater than 200 µg/mL throughout.

As for `CCC(C)Oc1ccc(C=NNC(=N)NN=Cc2ccc(OC(C)CC)cc2)cc1.Cl` (centres unmarked) [IST_007_022, 1,3-bis[(4-sec-butoxybenzylidene)amino]guanidine hydrochloride], the MIC stood at 1.56 µg/mL in the series with Riemerella anatipestifer (setting [3]); 0.2 µg/mL in the series on Riemerella anatipestifer (setting [4]); 1.56 µg/mL with Riemerella anatipestifer (setting [5]); 12.5 µg/mL with Clostridium perfringens (setting [6]); 12.5 µg/mL in the series with Clostridium perfringens (setting [7]); 12.5 µg/mL in the series with Clostridium perfringens (setting [8]). Besides, the “Survival rate (%)” value in the series on cherry valley ducks came out at 100%. Also, the “Average feed conversion efficiency” value in the series with cherry valley ducks is on record as 2.08. The Average weight gain in the series on cherry valley ducks was 61.3.

As for `CCC(CC)Oc1ccc(C=NNC(=N)NN=Cc2ccc(OC(CC)CC)cc2)cc1.Cl` [IST_007_023, 1,3-bis[[4-(3-pentoxy)benzylidene]amino]guanidine hydrochloride], the MIC came out at 1.56 µg/mL in the series with Riemerella anatipestifer (setting [3]); 0.78 µg/mL with Riemerella anatipestifer (setting [4]); 1.56 µg/mL with Riemerella anatipestifer (setting [5]); 12.5 µg/mL in the series with Clostridium perfringens (setting [6]); 12.5 µg/mL in the series on Clostridium perfringens (setting [7]); 12.5 µg/mL in the series with Clostridium perfringens (setting [8]). Besides, the “Survival rate (%)” value in the series with cherry valley ducks was 100%. For the same compound, the “Average feed conversion efficiency” value in the series with cherry valley ducks came to 2.05. The same compound yielded an Average weight gain in the series with cherry valley ducks of 62.4.

For the compound `Cl.N=C(NN=Cc1ccc(OC2CCCC2)cc1)NN=Cc1ccc(OC2CCCC2)cc1` [IST_007_024, 1,3-bis[(4-cyclopentoxybenzylidene)amino]guanidine hydrochloride], the MIC is 0.39 µg/mL with Riemerella anatipestifer (setting [3]); 0.78 µg/mL with Riemerella anatipestifer (setting [4]); 0.39 µg/mL in the series with Riemerella anatipestifer (setting [5]); 1.56 µg/mL in the series on Clostridium perfringens (setting [6]); 1.56 µg/mL in the series with Clostridium perfringens (setting [7]); 3.13 µg/mL in the series on Clostridium perfringens (setting [8]). For the same compound, in the series with cherry valley ducks, the “Survival rate (%)” value is listed as 100%. Besides, the “Average feed conversion efficiency” value with cherry valley ducks stood at 2.09. This compound returned an Average weight gain in the series on cherry valley ducks of 63.1.

Take `Cl.N=C(NN=Cc1ccc(OCc2ccccc2)cc1)NN=Cc1ccc(OCc2ccccc2)cc1` [IST_007_025, 1,3-bis[(4-benzyloxybenzylidene)amino]guanidine hydrochloride]: the MIC is greater than 200 µg/mL in the series with Riemerella anatipestifer (setting [3]); 0.39 µg/mL in the series with Riemerella anatipestifer (setting [4]); greater than 200 µg/mL in the series on Riemerella anatipestifer (setting [5]); greater than 200 µg/mL in the series with Clostridium perfringens (setting [6]); 100 µg/mL in the series on Clostridium perfringens (setting [7]); greater than 200 µg/mL in the series with Clostridium perfringens (setting [8]).

For the compound `CCCOc1ccc(C=NNC(=N)NN=Cc2ccc(OCCC)cc2)cc1.Cl` [IST_007_028, 1,3-bis[(4-propoxybenzylidene)amino]guanidine hydrochloride], the “Average daily weight gain” value in series [2] was 0.55 kg/day and 0.52 kg/day. For the same compound, the Feed conversion efficiency in series [2] was 1.75 and 1.85. Besides, the “Average weight gain” value in series [2] was 7.7 kg and 7.3 kg; with cherry valley ducks it was 61.6. For the same compound, the “Consumption” value in series [2] was 201.3 kg and 202.5 kg. In addition, the MIC with Riemerella anatipestifer (read-out: Minimum inhibitory concentration (MIC)) is 1.56 µg/mL; in the series on Riemerella anatipestifer (setting [4]), 0.39 µg/mL; with Riemerella anatipestifer (setting [5]) it was 0.39 µg/mL; with Clostridium perfringens (setting [6]), 1.56 µg/mL; in the series on Clostridium perfringens (setting [7]), 1.56 µg/mL; in the series with Clostridium perfringens (setting [8]), 1.56 µg/mL. Also, the “Survival rate (%)” value with cherry valley ducks worked out at 100%. For the same compound, the “Average feed conversion efficiency” value in the series on cherry valley ducks is reported as 2.04.
